In US7371766B2, “Curcumin analogs with anti-tumor and anti-angiogenic properties” (Emory University, priority 1999, dated 2008) one finds GI50 and CC50 data, which are given here for nine compounds.

Like-named read-outs stand apart in the source and are kept apart here. Bounds are passed on as bounds.

For assay [1], the system named is U251. Particulars: read-out: Median Growth Inhibitory Concentration (GI50); U251, CNS Cancer; 48 hours.
For assay [2], the system named is TK-10. To be noted: read-out: Median Growth Inhibitory Concentration (GI50); TK-10, Renal Cancer; 48 hours.
In assay [3] the test system is HS 578T. Particulars: read-out: Median Growth Inhibitory Concentration (GI50), Breast Cancer, 48 hours.
For assay [4], the system named is HCC-2998. Particulars: read-out: Median Growth Inhibitory Concentration (GI50); HCC-2998, Colon Cancer; 48 hours.
Assay [5] has as its system HOP-92. To be noted: read-out: Median Growth Inhibitory Concentration (GI50); HOP-92, Non-Small Cell Lung Cancer; 48 hours.
For assay [6], the system named is NCI-H23. Particulars: read-out: Median Growth Inhibitory Concentration (GI50); NCI-H23, Non-Small Cell Lung Cancer; 48 hours.
In assay [7] the test system is SK-MEL-28. To be noted: read-out: Median Growth Inhibitory Concentration (GI50); SK-MEL-28, Melanoma; 48 hours.
Assay [8] deals with OVCAR-8. To be noted: read-out: Median Growth Inhibitory Concentration (GI50); OVCAR-8, Ovarian Cancer; 48 hours.
Assay [9] relates to SW-620. Particulars: read-out: Median Growth Inhibitory Concentration (GI50); SW-620, Colon Cancer; 48 hours.
The subject of assay [10] is SR. To be noted: read-out: Median Growth Inhibitory Concentration (GI50), Leukemia, 48 hours.
Assay [11] deals with UO-31. Particulars: read-out: Median Growth Inhibitory Concentration (GI50); UO-31, Renal Cancer; 48 hours.
Assay [12] deals with MDA-MB-231. Particulars: read-out: Median Growth Inhibitory Concentration (GI50); MDA-MB-231, Breast Cancer; 48 hours.
Assay [13] relates to MALME-3M. To be noted: read-out: Median Growth Inhibitory Concentration (GI50), Melanoma, 48 hours.
Assay [14] concerns MDA-N. To be noted: read-out: Median Growth Inhibitory Concentration (GI50), Breast Cancer, 48 hours.
The subject of assay [15] is SNB-19. Particulars: read-out: Median Growth Inhibitory Concentration (GI50); SNB-19, CNS Cancer; 48 hours.
The subject of assay [16] is SK-MEL-5. To be noted: read-out: Median Growth Inhibitory Concentration (GI50); SK-MEL-5, Melanoma; 48 hours.
The test system of assay [17] is UACC-62. Particulars: read-out: Median Growth Inhibitory Concentration (GI50); UACC-62, Melanoma; 48 hours.
Assay [18] deals with RXF 393. Particulars: read-out: Median Growth Inhibitory Concentration (GI50); RXF 393, Renal Cancer; 48 hours.
The test system of assay [19] is SNB-75. Particulars: read-out: Median Growth Inhibitory Concentration (GI50); SNB-75, CNS Cancer; 48 hours.
Assay [20] concerns NCI-H226. To be noted: read-out: Median Growth Inhibitory Concentration (GI50); NCI-H226, Non-Small Cell Lung Cancer; 48 hours.
The subject of assay [21] is HT29. Particulars: read-out: Median Growth Inhibitory Concentration (GI50); HT29, Colon Cancer; 48 hours.
Assay [22] has as its system SF-539. Particulars: read-out: Median Growth Inhibitory Concentration (GI50); SF-539, CNS Cancer; 48 hours.
For assay [23], the system named is MCF-7. To be noted: read-out: Median Growth Inhibitory Concentration (GI50); MCF-7, Breast Cancer; 48 hours.
The test system of assay [24] is LOX IMVI. Particulars: read-out: Median Growth Inhibitory Concentration (GI50), Melanoma, 48 hours.
The subject of assay [25] is HL-60 (TB). To be noted: read-out: Median Growth Inhibitory Concentration (GI50), Leukemia, 48 hours.
Assay [26] has as its system OVCAR-3. Particulars: read-out: Median Growth Inhibitory Concentration (GI50); OVCAR-3, Ovarian Cancer; 48 hours.
Assay [27] concerns RPMI-8226. Particulars: read-out: Median Growth Inhibitory Concentration (GI50); RPMI-8226, Leukemia; 48 hours.
Assay [28] has as its system SNB-75. Briefly: cells. Particulars: Homo sapiens, SNB-75, 48 h; for GI50: read-out: Median Growth Inhibitory Concentration (GI50); for CC50: read-out: Median Lethal Concentration (LC50).
Assay [29] concerns SN12C. Briefly: cells. Particulars: Homo sapiens, 48 h; for GI50: read-out: Median Growth Inhibitory Concentration (GI50); for CC50: read-out: Median Lethal Concentration (LC50).
Assay [30] deals with SR. Briefly: cells. To be noted: Homo sapiens, 48 h; for GI50: read-out: Median Growth Inhibitory Concentration (GI50); for CC50: read-out: Median Lethal Concentration (LC50).
Assay [31] relates to OVCAR-3. Briefly: cells. To be noted: Homo sapiens, OVCAR-3, 48 h; for GI50: read-out: Median Growth Inhibitory Concentration (GI50); for CC50: read-out: Median Lethal Concentration (LC50).
Assay [32] concerns HOP-92. Briefly: cells. Particulars: Homo sapiens, HOP-92, 48 h; for GI50: read-out: Median Growth Inhibitory Concentration (GI50); for CC50: read-out: Median Lethal Concentration (LC50).

“3,5-Bis(2-hydroxybenzylidene)-sulfone [EF11]”: the GI50 worked out at 35.7 µM in assay [1]; 41.2 µM in assay [2]; 52.1 µM in [3]; 20.5 µM in assay [4]; 23.5 µM in assay [5]; 35.8 µM in [6]. Further, the GI50 in assay [7] is 42.5 µM; in [8], 47.1 µM; in assay [9], 32.5 µM; in assay [10], 21.5 µM; in assay [11], 28.4 µM; in assay [12], 25.6 µM. Also, the GI50 was 40.7 µM in [13]; 36.9 µM in [14]; 48 µM in [15]; 23.2 µM in assay [16]; 21.3 µM in assay [17]; 39 µM in [18]. For the same compound, the GI50 in assay [19] was 20.3 µM; in [20] it was above 100 µM; in assay [21], 45.9 µM; in assay [22], 39.9 µM; in [23] it was 28.7 µM; in [24], 40.3 µM. The GI50 is 21.3 µM in [25], 41.8 µM in [26] and 18.2 µM in assay [27].
For `N.N.[Cl][Pt][Cl]` [Cisplatin, reference compound], the GI50 came out at 0.4 µM in assay [1]; 1.3 µM in [2]; 1.3 µM in [3]; 0.1 µM in assay [4]; 0.6 µM in assay [5]; 0.1 µM in [6]. The GI50 in assay [7] is 0.8 µM; in assay [8] it was 1 µM; in assay [9], 0.8 µM; in assay [10], 0.1 µM; in [11], 0.8 µM; in [12], 3.2 µM. Besides, the GI50 was determined as 0.2 µM in assay [13]; 0.8 µM in assay [14]; 1 µM in [15]; 0.5 µM in assay [16]; 0.3 µM in assay [17]; 0.8 µM in assay [18]. Besides, the GI50 stood at 0.6 µM in assay [19]; 0.8 µM in assay [20]; 1.3 µM in [21]; 0.4 µM in [22]; 0.4 µM in assay [23]; 0.3 µM in [24]. For the same compound, the figures for the GI50 in assay [25], in [26] and in assay [27] were 0.1 µM, 1 µM and 0.5 µM, respectively.
With `COc1cc(/C=C/C(=O)CC(=O)/C=C/c2ccc(O)c(OC)c2)ccc1O` [Curcumin], the GI50 in assay [28] came to 6.3 µM; in assay [29] it was 7.9 µM; in assay [30], 3.2 µM; in assay [31], 6.3 µM. The CC50 in [28] worked out at 50.1 µM; in assay [29], 63.1 µM; in assay [30], 79.4 µM; in assay [31], 63.1 µM.
Regarding `O=C1C(=Cc2ccccc2O)CCCC1=Cc1ccccc1O` [EF4, 2,6Bis(2-hydroxybenzylidene)cyclohexanone], the GI50 turned out to be 2 µM in assay [28]; 2.3 µM in assay [29]; 2.8 µM in [32]; 1.6 µM in assay [30]; 3.7 µM in assay [31]. Further, the CC50 in assay [28] was 21.5 µM; in assay [29] it was 21.5 µM; in assay [32], 41.4 µM; in [30], above 100 µM; in assay [31] it was 40.7 µM.
In the case of `CC1(/C=C/c2ccccc2O)C=Cc2ccccc2O1` (stereo not shown) [EF7], the GI50 is 11.8 µM in assay [28]; 15.2 µM in assay [29]; 12.7 µM in assay [32]; 15.2 µM in assay [30]; 15.6 µM in assay [31]. Further, the CC50 was 49 µM in assay [28]; 54.4 µM in assay [29]; 54.9 µM in assay [32]; 76.8 µM in [30]; 54.5 µM in [31].
As to `O=C(C=Cc1ccc(F)cc1F)C=Cc1ccc(F)cc1F` [EF9, 1,5-Bis(2,4-difluorophenyl)penta-1,4-dien-3-one], the GI50 came to 11.2 µM in assay [28]; 17.1 µM in assay [29]; 16.3 µM in assay [32]; 1.2 µM in assay [30]; 14.1 µM in assay [31]. Besides, the CC50 was 48.8 µM in [28]; 62.3 µM in assay [29]; 70.4 µM in [32]; 77.9 µM in assay [30]; 52.1 µM in assay [31].
Consider `C(=C\c1ccccc1)/S/C=C/c1ccccc1` [EF15], for which the GI50 in [1] was 95.1 µM; in assay [2], above 100 µM; in [3], above 100 µM; in assay [4], 31.6 µM; in assay [5], above 100 µM; in [6], above 100 µM. For the same compound, the GI50 is 83.7 µM in [7]; above 100 µM in assay [8]; 79.8 µM in assay [9]; 52 µM in assay [10]; 96.8 µM in assay [11]; above 100 µM in assay [12]. The GI50 in [13] was above 100 µM; in [14], 67.8 µM; in [15], above 100 µM; in [16], 53.9 µM; in assay [17], 66.7 µM; in assay [18], 23.5 µM. The GI50 in [19] was 98.8 µM; in assay [20], above 100 µM; in assay [21], 46.1 µM; in assay [22] it was above 100 µM; in [23] it was 44.6 µM; in assay [24] it was above 100 µM. Further, the GI50 in [25] is 49.9 µM; in [26], above 100 µM; in assay [27], 49.8 µM.
As for `OC(CCc1ccc(F)cc1F)CCc1ccc(F)cc1F` [EF19, 1,5-Bis(2,4-difluorophenyl)-pentan-3-ol], the GI50 in assay [28] amounted to 19 µM; in assay [29] it was 17.4 µM; in assay [32], 17.5 µM; in assay [30], 22.7 µM; in assay [31], 17.9 µM. The CC50 in [28] came to 57.5 µM; in [29] it was 55.9 µM; in assay [32], 59.3 µM; in assay [30], 82.6 µM; in [31] it was 59.3 µM.
With `CC(=O)O.O=C1C(=Cc2ccccc2F)CNCC1=Cc1ccccc1F` [EF24, 3,5-Bis-(2-fluorobenzylidene)-piperidin-4-one-acetate], the GI50 in assay [28] is 2 µM; in assay [29] it was 1 µM; in [32], 3 µM; in assay [30], 0.1 µM; in assay [31], 1.1 µM. Also, the CC50 in [28] was 8.8 µM; in assay [29] it was 5.4 µM; in assay [32], 23.3 µM; in assay [30], 68.2 µM; in assay [31], 16.2 µM.
